Source: patent US11634419B2, “Dimethyl amino azetidine amides as JAK inhibitors” (THERAVANCE BIOPHARMA R&D IP, LLC, priority 2018, dated 2023)

Key:
[1] = tested on: IFNγ secretion in mixed lymphocyte reaction; experiment: Inhibition of IFNγ secretion in a mixed lymphocyte reaction assay; assay type: cell-based, human; conditions: summary statement
Procedure: The mixed lymphocyte reaction assay is an in-vitro assay that mimics transplant rejection. T cells from one donor are cultured with allogeneic dendritic cells from another donor. This reaction induces a cellular immune response such as IFNγ secretion. CD14+ monocytes were isolated from human whole blood (Stanford blood center) of donor A using a ficoll gradient and magnetic seperation (CD14 microbeads, Miltenyi). […] Cells were harvested, washed with media, re-suspended to 400,000 cells/ml in media and plated at 10,000 cells/well/25 μl. CD4+ T cells were freshly isolated from human whole blood (Stanford blood center) of donor B using a ficoll gradient and magnetic separation (CD4+ T cell isolation kit, Miltenyi). T cells were re-suspended to 4,000,000 cells/ml in RPMI (Life Technologies) supplemented with 10% Fetal Bovine Serum (FBS, Life Technologies), 2 mM Glutamax (Life Technologies), 25 mM HEPES (Life Technologies) and 1× Pen/Strep (Life Technologies). CD4+ T cells were mixed with the dendritic cells at 100,000 cells/well/25p. […] On day 5, supernatants were collected and measured for interferon gamma (INFγ) using enzyme linked immunosorbent assay (ELISA). Percent inhibition was determined by compound inhibitory potency against IFNγ secretion compared to vehicle treated cells. […]

[2] = Pharmacokinetics in plasma and lung in mouse; assay type: in vivo; conditions: single oral aspiration, 0.2 mg/mL, 50 μL
Procedure: Plasma and lung concentrations of test compounds and ratios thereof were determined in the following manner. BALB/c mice from Charles River Laboratories were used in the assay. Test compounds were individually formulated in 20% propylene glycol in pH 4 citrate buffer at a concentration of 0.2 mg/mL and 50 μL of the dosing solution was introduced into the trachea of a mouse by oral aspiration. At various time points (typically 0.167, 2, 6, 24 hr) post dosing, blood samples were removed via cardiac puncture and intact lungs were excised from the mice.

Lung S9 metabolism = assay type: in vitro ADME, human; conditions: for Compound Remaining at 60 min (%): human lung S9, 1 μM compound, 1 mg/mL S9 protein, NADPH and PAPS; for Sulfate Appearance: qualitative, O-sulfate metabolite peak in human lung S9
Procedure: The time 0, 15, 30, and 60 minute samples were analyzed for parent compound by high resolution LC-MS/MS. Lung S9 fractions from human (lot 1410245) were purchased from XenoTech LLC (Lenexa, Kans.). NADPH (Sigma Aldrich, N1630) and 3-phosphoadenosine 5-phosphosulfate (PAPS) (Sigma Aldrich, A1651) were purchased from Sigma Aldrich (St. Louis, Mo.). Acetonitrile and water were obtained from VWR (Radnor, Pa.) and were of HPLC grade or better. Raloxifene and formic acid was purchased from Sigma Aldrich (St. Louis, Mo.). Lung S9 incubations were performed in a water bath at 37° C. in a 96-well polypropylene plate. […] Louis, Mo.), 3 mM magnesium chloride (Sigma Aldrich, M1028) and in the presence of 100 μM PAPS (Sigma-Aldrich, St. […] Incubation volumes consisted of 400 μL and time points were taken at 0, 15, 30, and 60 minutes by the removal of a 70 μL aliquot and dilution into 140 μL acetonitrile (0% formic acid). All samples were centrifuged at 2250 g for 10 minutes at 5° C. Supernatant (50 μL) was taken from the centrifuged samples and diluted into 100 μL HPLC water containing internal standard. The samples were run on a Dionex Ultimate 3000 Auto sampler and analyzed using a Thermo Q-Exactive High Resolution Mass Spectrometer (Thermo, Waltham, Mass.) in Full Scan mode in conjunction with an Atlantis T3 column 3 μM−2.1×50 mm (Waters Inc., 186003717). Mobile Phase A consisted of Water+0.2% formic acid and Mobile Phase B consisted of acetonitrile+0.2% formic acid. Peak integration was accomplished using Gubbs GMSU software (Gubbs Inc., Alpharetta, Ga.). For each sample, peak area ratios were calculated by dividing the analyte peak area by the internal standard peak area. For each incubation, the peak area ratios of the analytes in each t0 was set to 100%, and the peak areas ratios from the 60 minute samples were converted to percentages remaining relative to the corresponding t0. Determination of sulfate metabolite formation was made qualitatively by observation of early-eluting peak in the parent ion channel which, based on historical internal data, corresponded to the O-sulfate metabolite of each parent compound.

human JAK1 = human JAK1 (Homo sapiens (Human), UniProt P23458); experiment: Co-crystal structure with JAK1; conditions: resolution 2.28 Å
Source text: A co-crystal structure was obtained of compound C-1 bound to human JAK1 at a resolution of 2.28 Å. […] Seven specific hydrogen bonding interactions were identified based upon a distance of 3.5 Å or less between donor and acceptor atoms. Of particular note, a hydrogen bonding interaction was identified between the carbonyl of the exocyclic amide of the compound of C-1 and the sidechain of Arg879 of JAK1. A similar interaction can be expected for the compounds of the invention.

Chain of human JAK1 (P23458 whole entry): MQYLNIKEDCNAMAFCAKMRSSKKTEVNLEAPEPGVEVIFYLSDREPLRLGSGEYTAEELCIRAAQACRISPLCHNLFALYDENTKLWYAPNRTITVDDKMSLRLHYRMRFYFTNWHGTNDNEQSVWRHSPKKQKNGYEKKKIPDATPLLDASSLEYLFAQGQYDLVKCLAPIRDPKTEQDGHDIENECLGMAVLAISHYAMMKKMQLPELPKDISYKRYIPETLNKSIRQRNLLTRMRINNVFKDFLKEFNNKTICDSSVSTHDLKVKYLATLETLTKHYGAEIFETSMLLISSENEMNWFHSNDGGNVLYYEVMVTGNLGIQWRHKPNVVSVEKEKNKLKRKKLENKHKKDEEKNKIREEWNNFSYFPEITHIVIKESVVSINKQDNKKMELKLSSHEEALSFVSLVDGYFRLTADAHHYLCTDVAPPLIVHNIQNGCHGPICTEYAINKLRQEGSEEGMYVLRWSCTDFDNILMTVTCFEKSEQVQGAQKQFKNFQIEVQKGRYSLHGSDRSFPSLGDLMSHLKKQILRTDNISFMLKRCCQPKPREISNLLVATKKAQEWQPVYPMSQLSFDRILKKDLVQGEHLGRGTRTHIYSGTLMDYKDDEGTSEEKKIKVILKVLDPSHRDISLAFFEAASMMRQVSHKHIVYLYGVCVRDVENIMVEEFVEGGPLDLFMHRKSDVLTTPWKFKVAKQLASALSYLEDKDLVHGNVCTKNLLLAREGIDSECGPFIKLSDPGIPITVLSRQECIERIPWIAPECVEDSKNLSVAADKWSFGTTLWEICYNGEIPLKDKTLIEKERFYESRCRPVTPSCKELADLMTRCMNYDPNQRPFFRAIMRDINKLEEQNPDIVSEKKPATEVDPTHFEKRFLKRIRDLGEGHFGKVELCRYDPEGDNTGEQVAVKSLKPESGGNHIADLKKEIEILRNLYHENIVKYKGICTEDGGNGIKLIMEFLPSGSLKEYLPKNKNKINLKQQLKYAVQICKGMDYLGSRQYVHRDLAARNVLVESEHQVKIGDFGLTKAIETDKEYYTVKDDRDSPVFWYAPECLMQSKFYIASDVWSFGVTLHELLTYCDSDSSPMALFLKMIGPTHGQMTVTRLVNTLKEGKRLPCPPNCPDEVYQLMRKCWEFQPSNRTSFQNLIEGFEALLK

SMILES	inhibition of IFNγ secretion in mixed lymphocyte reaction (in words) [1]	Plasma AUC(0-24) [2] [ng·h/mL]	Compound Remaining at 60 min (%) (Lung S9 metabolism)	Sulfate Appearance (Lung S9 metabolism)	binding site observed in co-crystal structure (human JAK1)
CCc1cc(O)ccc1-c1ccc2c(-c3nc4c([nH]3)CN(C(C)C)[C@H](C(=O)N3CC(N(C)C)C3)C4)n[nH]c2c1 [Compound 1, (S)-(3-(dimethylamino)azetidin-1-yl)(2-(6-(2-ethyl-4-hydroxyphenyl)-1H-indazol-3-yl)-5-isopropyl-4,5,6,7-tetrahydro-3H-imidazo[4,5-c]pyridin-6-yl)methanone]	effectively inhibit IFNγ secretion	943	81	Yes	
CCc1cc(O)ccc1-c1ccc2c(-c3nc4c([nH]3)CN(CC)[C@H](C(=O)N3CC(N(C)C)C3)C4)n[nH]c2c1 [Compound 2, (S)-(3-(dimethylamino)azetidin-1-yl)(5-ethyl-2-(6-(2-ethyl-4-hydroxyphenyl)-1H-indazol-3-yl)-4,5,6,7-tetrahydro-3H-imidazo[4,5-c]pyridin-6-yl)methanone]			98	Yes	
CCc1cc(O)ccc1-c1ccc2c(-c3nc4c([nH]3)CN(CC)[C@H](C(=O)N3CC(C)(N(C)C)C3)C4)n[nH]c2c1 [Compound 3, (S)-(3-(dimethylamino)-3-methylazetidin-1-yl)(5-ethyl-2-(6-(2-ethyl-4-hydroxyphenyl)-1H-indazol-3-yl)-4,5,6,7-tetrahydro-3H-imidazo[4,5-c]pyridin-6-yl)methanone]			97	Yes	
CCc1cc(O)ccc1-c1ccc2c(-c3nc4c([nH]3)CN(C(C)C)[C@H](C(=O)N3CC(C)(N(C)C)C3)C4)n[nH]c2c1 [Compound 4, (S)-(3-(dimethylamino)-3-methylazetidin-1-yl)(2-(6-(2-ethyl-4-hydroxyphenyl)-1H-indazol-3-yl)-5-isopropyl-4,5,6,7-tetrahydro-3H-imidazo[4,5-c]pyridin-6-yl)methanone]			100	Yes	
CCCN1Cc2[nH]c(-c3n[nH]c4cc(-c5ccc(O)cc5CC)ccc34)nc2C[C@H]1C(=O)N1CC(N(C)C)C1 [Compound 5, (S)-(3-(dimethylamino)azetidin-1-yl)(2-(6-(2-ethyl-4-hydroxyphenyl)-1H-indazol-3-yl)-5-propyl-4,5,6,7-tetrahydro-3H-imidazo[4,5-c]pyridin-6-yl)methanone]			96	Yes	
CCCN1Cc2[nH]c(-c3n[nH]c4cc(-c5ccc(O)cc5CC)ccc34)nc2C[C@H]1C(=O)N1CC(C)(N(C)C)C1 [Compound 6, (S)-(3-(dimethylamino)-3-methylazetidin-1-yl)(2-(6-(2-ethyl-4-hydroxyphenyl)-1H-indazol-3-yl)-5-propyl-4,5,6,7-tetrahydro-3H-imidazo[4,5-c]pyridin-6-yl)methanone]			90	Yes	
CCc1cc(O)c(F)cc1-c1ccc2c(-c3nc4c([nH]3)CN(C(C)C)[C@H](C(=O)N3CC(N(C)C)C3)C4)n[nH]c2c1 [Compound C-1, (S)-(3-(dimethylamino)azetidin-1-yl)(2-(6-(2-ethyl-5-fluoro-4-hydroxyphenyl)-1H-indazol-3-yl)-5-isopropyl-4,5,6,7-tetrahydro-3H-imidazo[4,5-c]pyridin-6-yl)methanone, reference compound]			6	Yes	bind in the ATP binding site
CCc1cc(O)c(F)cc1-c1ccc2c(-c3nc4c([nH]3)CN(CC)[C@H](C(=O)N3CC(N(C)C)C3)C4)n[nH]c2c1 [Compound C-2, (S)-(3-(dimethylamino)azetidin-1-yl)(5-ethyl-2-(6-(2-ethyl-5-fluoro-4-hydroxyphenyl)-1H-indazol-3-yl)-4,5,6,7-tetrahydro-3H-imidazo[4,5-c]pyridin-6-yl)methanone, reference compound]			6	Yes	
CCc1cc(O)c(F)cc1-c1ccc2c(-c3nc4c([nH]3)CN(CC)[C@H](C(=O)N3CC(C)(N(C)C)C3)C4)n[nH]c2c1 [Compound C-3, (S)-(3-(dimethylamino)-3-methylazetidin-1-yl)(5-ethyl-2-(6-(2-ethyl-5-fluoro-4-hydroxyphenyl)-1H-indazol-3-yl)-4,5,6,7-tetrahydro-3H-imidazo[4,5-c]pyridin-6-yl)methanone, reference compound]			5	Yes	
CCc1cc(O)c(F)cc1-c1ccc2c(-c3nc4c([nH]3)CN(C(C)C)[C@H](C(=O)N3CC(C)(N(C)C)C3)C4)n[nH]c2c1 [Compound C-4, (S)-(3-(dimethylamino)-3-methylazetidin-1-yl)(2-(6-(2-ethyl-5-fluoro-4-hydroxyphenyl)-1H-indazol-3-yl)-5-isopropyl-4,5,6,7-tetrahydro-3H-imidazo[4,5-c]pyridin-6-yl)methanone, reference compound]			4	Yes	
CCCN1Cc2[nH]c(-c3n[nH]c4cc(-c5cc(F)c(O)cc5CC)ccc34)nc2C[C@H]1C(=O)N1CC(N(C)C)C1 [Compound C-5, (S)-(3-(dimethylamino)azetidin-1-yl)(2-(6-(2-ethyl-5-fluoro-4-hydroxyphenyl)-1H-indazol-3-yl)-5-propyl-4,5,6,7-tetrahydro-3H-imidazo[4,5-c]pyridin-6-yl)methanone, reference compound]			5	Yes	
CCCN1Cc2[nH]c(-c3n[nH]c4cc(-c5cc(F)c(O)cc5CC)ccc34)nc2C[C@H]1C(=O)N1CC(C)(N(C)C)C1 [Compound C-6, (S)-(3-(dimethylamino)-3-methylazetidin-1-yl)(2-(6-(2-ethyl-5-fluoro-4-hydroxyphenyl)-1H-indazol-3-yl)-5-propyl-4,5,6,7-tetrahydro-3H-imidazo[4,5-c]pyridin-6-yl)methanone, reference compound]			4	Yes	
